Test systems include COLO 205; DMS-273; HCT-116; K562; LXFL 529; M19-MEL; Malme-3M; NCI-H522; RPMI-8226; SK-MEL-2; SK-OV-3; SNB-78; SW-620; XF498; CAKI-1; HCT-15; OVCAR-4.
Assay in all cases: DTP human tumour cell line panel, 48 h

From ChEMBL document CHEMBL1201862, “PubChem BioAssay data set” (2004) come the findings set out here.

Broadly, the GI50 is the concentration giving 50% growth inhibition.

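Grown in 96-well plates, cells were treated for 48 hours with each compound at five concentrations. Insufficient inhibition: endpoint recorded as highest concentration tested. The concentration for 50% growth inhibition is given as GI50.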 The source made the active and inactive calls. Cut-off read from the data, not from the text of the source: active = GI50 up to about 1.1 µM and inactive = higher.

With `Fc1ccc2c(c1)SC1Oc3ccccc3-c3c1c-2nn3-c1ccccc1` (configuration not stated), the GI50 in the experiment with COLO 205 was > 100 µM (inactive); with DMS-273, > 100 µM (inactive); with HCT-116 it was 66.8 µM (inactive); with K562, > 100 µM (inactive); in the experiment on LXFL 529 it was > 100 µM (inactive); in the experiment on M19-MEL, > 100 µM (inactive). Besides, the GI50 in the experiment on Malme-3M is > 100 µM (inactive); in the experiment on NCI-H522, 37.9 µM (inactive); in the experiment with RPMI-8226, > 100 µM (inactive); in the experiment on SK-MEL-2, > 100 µM (inactive); with SK-OV-3, > 100 µM (inactive); with SNB-78, > 100 µM (inactive). The GI50 with SW-620 and in the experiment with XF498 was > 100 µM (inactive) each time.

`O=C1CCCC/C1=C1\C(=O)Nc2cc(F)ccc21`: the GI50 is > 100 µM (inactive) in the experiment with CAKI-1; > 100 µM (inactive) in the experiment on COLO 205; > 100 µM (inactive) in the experiment on DMS-273; > 100 µM (inactive) in the experiment on HCT-116; above 100 µM in the experiment on HCT-15; > 100 µM (inactive) with K562. Moreover, the GI50 in the experiment on LXFL 529, with M19-MEL, in the experiment on Malme-3M, in the experiment on NCI-H522, with OVCAR-4 and with RPMI-8226 was > 100 µM (inactive) throughout. For the same compound, the GI50 in the experiment with SK-MEL-2 was > 100 µM (inactive); in the experiment with SK-OV-3, > 100 µM (inactive); with SNB-78, > 100 µM (inactive); with SW-620, 35.3 µM (inactive); in the experiment on XF498 it was > 100 µM (inactive).

As for `COc1c(Sc2ccccc2)cc(Sc2ccccc2)c2cccnc12`, the GI50 in the experiment on CAKI-1 was 12.9 µM (inactive); with COLO 205, 19.6 µM (inactive); with DMS-273, 20 µM (inactive); in the experiment on HCT-116 it was 28.9 µM (inactive); in the experiment with HCT-15 it was 15.4 µM; in the experiment with K562 it was 23.7 µM (inactive). Besides, the GI50 with LXFL 529 was 30.8 µM (inactive); with M19-MEL it was 28.9 µM (inactive); with Malme-3M, 15.1 µM (inactive); with OVCAR-4, 16.2 µM (inactive); with RPMI-8226, 17.6 µM (inactive); with SK-MEL-2, 17.6 µM (inactive). For the same compound, the GI50 in the experiment with SK-OV-3 is > 100 µM (inactive); in the experiment on SNB-78, 34 µM (inactive); with SW-620 it was 39.2 µM (inactive); in the experiment on XF498 it was 17.7 µM (inactive).

For the compound `CC(=O)CC(=O)ON(C)C(C)=O`, the GI50 in the experiment with CAKI-1, in the experiment on COLO 205, in the experiment on DMS-273, in the experiment on HCT-116, in the experiment with K562 and in the experiment with LXFL 529 was > 100 µM (inactive) throughout. Moreover, the GI50 is > 100 µM (inactive) in the experiment with M19-MEL; > 100 µM (inactive) with Malme-3M; > 100 µM (inactive) in the experiment on NCI-H522; 29.2 µM (inactive) in the experiment with OVCAR-4; > 100 µM (inactive) in the experiment on RPMI-8226; > 100 µM (inactive) with SK-OV-3. Further, the GI50 in the experiment on SNB-78, in the experiment with SW-620 and in the experiment with XF498 was > 100 µM (inactive) each time.

For the compound `COc1ccc2c(c1)CC[C@@H]1C2CC[C@]2(C)C(=N\O)/C(=N/O)CC12` (some centres not stated), the GI50 was 10.7 µM (inactive) in the experiment with CAKI-1; 14.3 µM (inactive) in the experiment on COLO 205; 12 µM (inactive) in the experiment on DMS-273; 16 µM (inactive) with HCT-116; 12.4 µM in the experiment with HCT-15; 8.32 µM (inactive) in the experiment with K562. The GI50 in the experiment with LXFL 529 is 12.8 µM (inactive); in the experiment with M19-MEL it was 17.2 µM (inactive); with Malme-3M, 17.7 µM (inactive); with NCI-H522 it was 2.93 µM (inactive); with RPMI-8226, 9.31 µM (inactive); in the experiment on SK-MEL-2, 13.1 µM (inactive). Also, the GI50 in the experiment on SK-OV-3 is 18.4 µM (inactive); in the experiment on SNB-78, 17 µM (inactive); in the experiment with SW-620, 17.6 µM (inactive); in the experiment with XF498, 14.5 µM (inactive).

Turning to `Clc1ccccc1C1=NN(c2ccccc2)C2c3cc(Br)ccc3OCC12` (configuration not stated), the GI50 in the experiment with COLO 205, in the experiment on DMS-273, with HCT-116, with K562, with LXFL 529 and in the experiment with M19-MEL was > 100 µM (inactive) in each case. Moreover, the GI50 was > 100 µM (inactive) with Malme-3M; > 100 µM (inactive) in the experiment with NCI-H522; 67.9 µM (inactive) in the experiment with RPMI-8226; > 100 µM (inactive) in the experiment with SK-MEL-2; > 100 µM (inactive) in the experiment on SK-OV-3; > 100 µM (inactive) in the experiment on SNB-78. Further, the GI50 in the experiment with SW-620 and with XF498 was > 100 µM (inactive) throughout.

Consider `Nc1ccc(C(=O)/C=C/c2ccccc2O)cc1`, for which the GI50 is > 100 µM (inactive) with CAKI-1; > 100 µM (inactive) with COLO 205; > 10 µM (inactive) in the experiment with DMS-273; > 100 µM (inactive) in the experiment on HCT-116; above 100 µM in the experiment on HCT-15; > 100 µM (inactive) in the experiment on K562. The GI50 in the experiment with LXFL 529, with M19-MEL, in the experiment with Malme-3M, with NCI-H522, with OVCAR-4 and in the experiment with SK-MEL-2 was > 100 µM (inactive) in each case. The GI50 in the experiment with SK-OV-3, in the experiment with SNB-78, in the experiment with SW-620 and with XF498 was > 100 µM (inactive) in each case.

Consider `O=C1C2Nc3ccccc3SC2C(=O)N1c1cccc([N+](=O)[O-])c1` (configuration not stated), for which the GI50 is > 100 µM (inactive) with CAKI-1; > 100 µM (inactive) with COLO 205; 1.46 µM (inactive) in the experiment with DMS-273; > 100 µM (inactive) in the experiment on HCT-116; 7.67 µM in the experiment with HCT-15; > 100 µM (inactive) in the experiment on K562. In addition, the GI50 was 74.3 µM (inactive) in the experiment with LXFL 529; > 100 µM (inactive) with M19-MEL; > 79.6 µM (inactive) with Malme-3M; 57.3 µM (inactive) in the experiment with NCI-H522; > 100 µM (inactive) with OVCAR-4; > 100 µM (inactive) in the experiment on RPMI-8226. For the same compound, the GI50 in the experiment on SK-MEL-2 was > 75.7 µM (inactive); in the experiment on SK-OV-3 it was > 100 µM (inactive); in the experiment with SNB-78 it was > 100 µM (inactive); in the experiment with SW-620, > 100 µM (inactive); in the experiment on XF498, > 100 µM (inactive).

In the case of `CCOc1ccc(NC(=O)CC2SC(Nc3ccc(C)cc3)=NC2=O)cc1` (configuration not stated), the GI50 was > 100 µM (inactive) in the experiment on COLO 205; > 100 µM (inactive) in the experiment on DMS-273; > 100 µM (inactive) in the experiment on HCT-116; above 100 µM in the experiment on HCT-15; > 100 µM (inactive) in the experiment with LXFL 529; > 100 µM (inactive) in the experiment with M19-MEL. For the same compound, the GI50 with Malme-3M, in the experiment with NCI-H522, in the experiment on OVCAR-4, in the experiment with SK-OV-3, in the experiment on SNB-78 and in the experiment on SW-620 was > 100 µM (inactive) in each case. Further, the GI50 in the experiment with XF498 was > 100 µM (inactive).

Take `Nc1ncnc2c1N=CN(Oc1ccccc1)N2`: the GI50 is > 100 µM (inactive) with CAKI-1; > 100 µM (inactive) with COLO 205; > 100 µM (inactive) with DMS-273; > 100 µM (inactive) in the experiment on HCT-116; above 100 µM with HCT-15; > 100 µM (inactive) in the experiment with K562. Moreover, the GI50 in the experiment with LXFL 529 was > 100 µM (inactive); in the experiment with M19-MEL, > 100 µM (inactive); with Malme-3M, 18.3 µM (inactive); with OVCAR-4 it was > 100 µM (inactive); in the experiment on RPMI-8226, > 100 µM (inactive); with SK-MEL-2, > 100 µM (inactive). Also, the GI50 in the experiment with SK-OV-3, with SNB-78, with SW-620 and with XF498 was > 100 µM (inactive) throughout.

For `Cc1cc(N(CCC#N)CCC#N)ccc1/C=C(\NC(=O)/C=C/c1ccccc1)C(=O)N=[N+]=[N-]`, the GI50 in the experiment on CAKI-1 is > 100 µM (inactive); in the experiment on COLO 205 it was > 100 µM (inactive); with DMS-273, > 100 µM (inactive); with HCT-116 it was > 100 µM (inactive); in the experiment with HCT-15, above 100 µM; with K562, > 100 µM (inactive). Moreover, the GI50 is > 100 µM (inactive) with LXFL 529; > 100 µM (inactive) with M19-MEL; > 100 µM (inactive) with Malme-3M; 30.4 µM (inactive) in the experiment with NCI-H522; > 100 µM (inactive) in the experiment on RPMI-8226; > 100 µM (inactive) in the experiment with SK-MEL-2. Also, the GI50 in the experiment with SK-OV-3 was 55 µM (inactive); in the experiment with SNB-78, 44.4 µM (inactive); in the experiment with SW-620 it was > 100 µM (inactive); with XF498, 28.5 µM (inactive).

Turning to `CCOC(=O)c1cn2c([nH]c3ccccc32)c(C#N)c1=O`, the GI50 in the experiment on CAKI-1 was > 100 µM (inactive); with COLO 205 it was 41.6 µM (inactive); in the experiment on DMS-273, > 100 µM (inactive); in the experiment on HCT-116 it was 80.4 µM (inactive); in the experiment on HCT-15, above 100 µM; with K562, > 100 µM (inactive). Further, the GI50 in the experiment on LXFL 529, with M19-MEL, in the experiment on Malme-3M, in the experiment on NCI-H522, with OVCAR-4 and with SK-MEL-2 was > 100 µM (inactive) throughout. Moreover, the GI50 with SK-OV-3 is > 100 µM (inactive); in the experiment with SNB-78 it was > 100 µM (inactive); in the experiment with SW-620 it was 17.1 µM (inactive); in the experiment on XF498, > 100 µM (inactive).

As to `O=C1c2cccc(O)c2C(=O)c2c(O)cccc21` [DANTHRON], the GI50 was 33.7 µM (inactive) with CAKI-1; 22 µM (inactive) in the experiment on COLO 205; 31.6 µM (inactive) with DMS-273; 49 µM (inactive) in the experiment on HCT-116; 74.8 µM in the experiment on HCT-15; 92.9 µM (inactive) in the experiment with K562. In addition, the GI50 in the experiment with LXFL 529 is > 100 µM (inactive); in the experiment with M19-MEL, 3.66 µM (inactive); in the experiment on NCI-H522, 62.7 µM (inactive); with OVCAR-4, 26.3 µM (inactive); in the experiment on RPMI-8226 it was 50.7 µM (inactive); with SK-MEL-2, > 100 µM (inactive). For the same compound, the GI50 was > 100 µM (inactive) in the experiment with SK-OV-3, > 100 µM (inactive) in the experiment with SNB-78, 64.1 µM (inactive) with SW-620 and > 100 µM (inactive) in the experiment on XF498.
